# Patent US4374249A, “[4R]-3-(ω-Aroylpropionyl)-4-thiazolidinecarboxylic acids and esters” (American Cyanamid Company, priority 1980, dated 1983)
# Target: T1, angiotensin converting enzyme (ACE) (Oryctolagus cuniculus, UniProt P12822)
# T1 construct: The ACE was extracted from rabbit lung acetane powder; tissue Pel-Freez, Biol. Inc; host or cells: rabbit lung acetone powder, 40,000 g supernatant used as crude extract
# T1 sequence (P12822 34-1310): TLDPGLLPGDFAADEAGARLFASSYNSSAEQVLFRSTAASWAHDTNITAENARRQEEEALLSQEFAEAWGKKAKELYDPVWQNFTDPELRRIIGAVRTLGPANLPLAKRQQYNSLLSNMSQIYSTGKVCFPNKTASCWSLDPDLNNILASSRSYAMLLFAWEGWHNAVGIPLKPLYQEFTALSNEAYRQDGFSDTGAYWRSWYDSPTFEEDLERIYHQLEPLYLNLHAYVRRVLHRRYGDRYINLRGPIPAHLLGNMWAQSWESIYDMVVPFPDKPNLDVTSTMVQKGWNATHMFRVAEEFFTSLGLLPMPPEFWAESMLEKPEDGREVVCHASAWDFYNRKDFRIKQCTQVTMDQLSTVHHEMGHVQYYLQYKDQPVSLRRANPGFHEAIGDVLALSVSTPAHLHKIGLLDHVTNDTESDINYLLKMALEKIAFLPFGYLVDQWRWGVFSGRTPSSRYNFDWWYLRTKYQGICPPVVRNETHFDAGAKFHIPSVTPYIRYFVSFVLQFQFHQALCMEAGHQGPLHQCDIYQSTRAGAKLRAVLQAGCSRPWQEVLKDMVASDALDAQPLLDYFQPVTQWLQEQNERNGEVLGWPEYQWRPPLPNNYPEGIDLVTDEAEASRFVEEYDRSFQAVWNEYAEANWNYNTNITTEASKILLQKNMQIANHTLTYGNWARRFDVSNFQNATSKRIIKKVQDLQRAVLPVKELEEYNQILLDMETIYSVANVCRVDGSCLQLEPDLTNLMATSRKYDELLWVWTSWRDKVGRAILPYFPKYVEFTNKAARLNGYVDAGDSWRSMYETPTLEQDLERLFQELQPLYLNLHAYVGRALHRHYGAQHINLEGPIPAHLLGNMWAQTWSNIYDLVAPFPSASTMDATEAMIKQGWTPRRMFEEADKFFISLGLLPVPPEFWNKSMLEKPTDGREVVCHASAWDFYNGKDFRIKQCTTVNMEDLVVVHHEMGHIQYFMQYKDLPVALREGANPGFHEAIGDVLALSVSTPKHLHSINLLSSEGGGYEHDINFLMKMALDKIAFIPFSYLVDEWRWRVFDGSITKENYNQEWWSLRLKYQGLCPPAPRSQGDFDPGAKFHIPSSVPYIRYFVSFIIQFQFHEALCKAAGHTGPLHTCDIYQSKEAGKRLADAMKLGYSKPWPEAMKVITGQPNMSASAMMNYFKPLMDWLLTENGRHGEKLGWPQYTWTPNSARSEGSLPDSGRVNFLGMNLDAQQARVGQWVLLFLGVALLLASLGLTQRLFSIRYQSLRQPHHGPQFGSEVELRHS
# Assay: Spectrophotometric Assay for Angiotensin Converting Enzyme Inhibitors (in vitro inhibition of ACE, benzoyl-glycyl-histidyl-leucine substrate)
# Assay type: biochemical
# Conditions: crude ACE extract from rabbit lung; 30 minutes at 37° C.; hippuric acid absorbance at 228 nm
# Method: Spectrophotometric Assay for Angiotensin Converting Enzyme Inhibitors
# The in vitro activity for inhibition of the angiotensin converting enzyme (ACE) was measured by the method of Cushman, D. W. and Cheung, H. S., Biochem. Pharmacol., 20, 1637-1648 (1971), using benzoyl-glycyl-histidyl-leucine as the substrate. The reaction mixture consisted of 50 μl. of potassium phosphate (500 mM., […]), 30 μl. of sodium chloride (2500 mM.), 25 μl. of substrate (50 mM.), 30 to 50 μl. of the crude extract of ACE, 10 μl. of test compound (2.5 mM.) or vehicle and a suitable amount of distilled water to give a total volume of 250 μl. This reaction mixture was incubated for 30 minutes at 37° C. and the reaction was then terminated by the addition of 250 μl. of 1 N hydrochloric acid. The hippuric acid was then extracted with 1.5 ml. of ethyl acetate by vortex mixing for 15 seconds. After centrifugation, one ml. of the ethyl acetate layer was pipetted into a new tube and evaporated to dryness. The extracted hippuric acid was then dissolved in one ml. of water and the amount of this acid was then measured by its absorbance at 228 nm. The ACE was extracted from rabbit lung acetane powder (Pel-Freez, Biol. Inc.) by blending 5 g. of the powder in 50 ml. of phosphate buffer (50 mM., pH 8.3) and then centrifuging at 40,000 g for 40 minutes. The supernatant was then kept at 5° C. and used as the enzyme source. The activity of the ACE inhibitor was calculated as the percent inhibition of ACE activity compared to the control value of that particular assay. A full dose-response inhibitory curve is then performed to determine the IC50 value which may be defined as the molar concentration of a compound that will inhibit ACE activity by 50%.
row,IC50 [µM],Structure (SMILES)
1,0.067,"CC(=O)SC(C(=O)c1ccccc1)[C@@H](C)C(=O)N1CSC[C@H]1C(=O)O (stereo partly drawn) [[4R-(4R*,2'S*)]-3-(3-Acetylthio-3-benzoyl-2-methylpropionyl)-4-thiazolidinecarboxylic acid]"
2,8.4,CC(=O)SC(CC(=O)c1ccccc1)C(=O)N1CSC[C@H]1C(=O)O (stereo partly drawn) [[4R]-3-(2-Acetylthio-3-benzoylpropionyl)-4-thiazolidinecarboxylic acid]
3,16.8,"CC(=O)SC(CC(=O)N1CSC[C@H]1C(=O)OCc1c(C)cc(C)cc1C)C(=O)c1ccc(F)cc1 (stereo partly drawn) [[4R]-3-[3-Acetylthio-3-(4-fluorobenzoyl)propionyl]-4-thiazolidinecarboxylicacid, 2,4,6-trimethylbenzyl ester]"
